The test deals with bovine cardiac (left ventricular) myofibrils. As to the kind of experiment: Cardiac myofibril ATPase assay. The format is biochemical. To be noted: 50 μM compound, pCa 8 to pCa 4. The protocol: Rabbit psoas and bovine cardiac myofibrils were prepared as described in our previous study ([17]). An enzyme-coupled, NADH-linked ATPase assay was used to measure skeletal and cardiac myofibril ATPase activity in 96-well microplates at 23 °C. Ionic strength was maintained below 0.2 M, so myofilaments remained insoluble and stable ([32]). To achieve optimal enzymatic activities, buffers for skeletal and cardiac myofibrils differed slightly ([33], [34]): skeletal in 50 mM MOPS, 100 mM KCl, 5 mM MgCl2, 1 mM EGTA, pH 7.0; cardiac in 20 mM MOPS, 35 mM NaCl, 5 mM MgCl2, 1 mM EGTA, pH 7.0. Each well in the microplate contained an assay mix of 0.84 mM phosphoenolpyruvate, 0.17 mM NADH, 10 U/vol pyruvate kinase, 20 U/vol lactate dehydrogenase. The concentration of free Ca^2+ was controlled by EGTA buffering ([35]). Myofibrils were dispensed in microplates with a multichannel pipette and were incubated with assay mix plus compound of interest for 20 min at 23 °C. The concentration of myofibrils used was 0.01 mg/ml for skeletal and 0.05 mg/ml for cardiac myofibrils. The assay was started upon the addition of ATP, at a final concentration of 2.1 mM (total volume to 200 μl), and absorbance was recorded at 340 nm in a SpectraMax Plus microplate spectrophotometer from Molecular Devices. The steady-state myofibrillar ATPase rate was measured from NADH oxidation, measured as the rate of decrease in absorption at 340 nm for 30 min, with absorption data collected every 15 s. All data and statistical analysis of steady-state kinetics were conducted with the OriginPro program. The results were fitted with the Hill equation:(6) […] is the ATPase rate and n is the Hill coefficient. ATPase activity is reported on the μmol ATP/mg protein/min scale. Average data are presented as mean ± SD. Sample means are derived from three different myofibril preps (N = 3), each done in duplicate (n = 6). The effects of compounds on ATPase activity of myofibrils were determined in the presence of 50 μM compound, across a 12-point pCa range from 4.0 (activation) to 8.0 (relaxation). The calcium sensitivity (pCa50) was determined by fitting the curves to the Hill equation. […] The normalized ATPase activity of the selected compounds can be found in Figure 6.

*1 amine or outer side, *2 acyl side, *3 side chain or, on linkers, in order; H or OH if unused. Where a SMILES comes first, the peptide text is derived from it. Bridges are numbered along the chain shown (N, C = ends). [ ]: non-standard residue; d: D form. The star is where a group is joined. Orn(4R-OH,5R-OH) = O=C([C@H](C[C@@H](O)[C@@H](O)N[*:3])N[*:1])[*:2]; Tetradecanoyl(10R,12S-Me2) = CC[C@H](C)C[C@H](C)CCCCCCCCC(=O)*; hTyr(3S-OH,4S-OH) = N[C@H](C(=O)O)[C@H](O)[C@@H](O)c1ccc(O)cc1; Gln(3R-OH) = NC(=O)C[C@@H](O)[C@H](N)C(=O)O; Pro(3S-OH) = O=C(O)[C@H]1NCC[C@@H]1O; Hyp = O=C(O)[C@@H]1C[C@@H](O)CN1

In the case of `CC[C@H](C)C[C@H](C)CCCCCCCCC(=O)N[C@H]1C[C@@H](O)[C@@H](O)NC(=O)[C@@H]2[C@@H](O)CCN2C(=O)[C@H]([C@H](O)CC(N)=O)NC(=O)[C@H]([C@H](O)[C@@H](O)c2ccc(O)cc2)NC(=O)[C@@H]2C[C@@H](O)CN2C(=O)[C@H]([C@@H](C)O)NC1=O` [Pneumocandin B0] ({Tetradecanoyl(10R,12S-Me2)}-[Orn(4R-OH,5R-OH)]T[Hyp][hTyr(3S-OH,4S-OH)][Gln(3R-OH)][Pro(3S-OH)]; lactam 1-C), the “effect on cardiac MF ATPase activity (in words)” value was “ATPase-activating effect”.

The record behind these values is PMC10692721, “Drug discovery for heart failure targeting myosin-binding protein C” (The Journal of Biological Chemistry, 2023).
